For this assay, the system named is SA 9218. Briefly: MIC by standard agar dilution method. The format is cell-based. The following applies: Mueller Hinton agar, 10^4 to 10^5 cells per spot, incubated overnight at 35° C., lowest concentration that inhibits visible growth. The source says:
The antibacterial agents of this invention have useful activity against a variety of organisms. The in vitro activity of compounds of this invention can be assessed by standard testing procedures such as the determination of minimum inhibitory concentration (MIC) by agar dilution as described in “Approved Standard. Methods for Dilution Antimicrobial Susceptibility Tests for Bacteria That Grow Aerobically”, 3rd. ed., published 1993 by the National Committee for Clinical Laboratory Standards, Villanova, Pa., USA. The in vitro MICs of test compounds were determined by a standard agar dilution method. A stock drug solution of each analog was prepared in the preferred solvent, usually DMSO:H2O (1:3). Serial 2-fold dilutions of each sample are made using 1.0 ml aliquots of sterile distilled water. To each 1.0 ml aliquot of drug was added 9 ml of molten Mueller Hinton agar medium. The drug-supplemented agar was mixed, poured into 15×100 mm petri dishes, and allowed to solidify and dry prior to inoculation. Vials of each of the test organisms are maintained frozen in the vapor phase of a liquid nitrogen freezer. Test cultures are grown overnight at 35° C. on the medium appropriate for the organism. Colonies are harvested with a sterile swab, and cell suspensions are prepared in Trypticase Soy broth (TSB) to equal the turbidity of a 0.5 McFarland standard. A 1:20 dilution of each suspension was made in TSB. The plates containing the drug supplemented agar are inoculated with a 0.001 ml drop of the cell suspension using a Steers replicator, yielding approximately 10^4 to 10^5 cells per spot. The plates are incubated overnight at 35° C. Following incubation the Minimum Inhibitory Concentration (MIC μg/ml), the lowest concentration of drug that inhibits visible growth of the organism, was read and recorded.

SMILES strings stand for the structures. Values after ≈ are worked out from the molar mass of the structure shown.

As a reminder, the MIC is the lowest concentration found to suppress growth. Low readings indicate greater potency, high ones weaker potency. In turn, `CC(=O)c1cccc(NC(=O)Nc2cccc(C(=O)Nc3ccc(Br)cc3C(=O)O)c2)c1` [PHA-708993] yielded a minimum inhibitory concentration (MIC) of 4 µg/mL (≈ 8.06 µM).

In turn, `O=C(Nc1ccc(Br)cc1C(=O)O)c1cccc(OCn2nnc3ccccc32)c1` had an MIC of 32 µg/mL (≈ 68.5 µM).

In the case of `O=C(Nc1ccc(Br)cc1C(=O)O)c1cccc(OCc2ccccc2)c1` [PHA-501685], the “SA 9218 MIC” value was determined as 2 µg/mL.

Turning to `COc1cc(C(=O)Nc2ccc(C#N)cc2C(=O)O)c([N+](=O)[O-])cc1OC`, the MIC was over 128 µg/mL.

As to `O=C(O)c1ccc([N+](=O)[O-])cc1/C=C\c1cccc(S(=O)(=O)N2CCc3cc(Cl)ccc32)c1` [PHA-568197], the minimal inhibitory concentration (MIC) came to 16 µg/mL (≈ 33 µM).

`Cc1ccc(-c2ccc(NC(=O)c3cccc(S(=O)(=O)N4CCc5cc(Cl)ccc54)c3)c(C(=O)O)c2)s1` [PHA-563282] showed an MIC of 1 µg/mL (≈ 1.81 µM).

The molecule `CC(=O)c1cccc(NC(=S)Nc2cccc(C(=O)Nc3ccc(Br)cc3C(=O)O)c2)c1` [PHA-713408] yielded an MIC of 64 µg/mL (≈ 125 µM).

`CN(C)c1ccc(C(=O)c2ccc(C(=O)Nc3ccc(Cl)cc3C(=O)O)cc2)cc1` came in with an MIC of 16 µg/mL (≈ 37.8 µM).

As to `CCCC(=O)c1ccc(NC(=O)c2ccc(S(=O)(=O)N3CCc4ccc(Cl)cc43)cc2)c(C(=O)O)c1`, the MIC came out at 16 µg/mL (≈ 30.4 µM).

Molecule `CN(CCOc1ccc(C(=O)Nc2ccc(Br)cc2C(=O)O)cc1)Cc1ccccc1` registered a minimal inhibitory concentration (MIC) of 128 µg/mL (≈ 265 µM). Compared with the last molecule, the MIC is about 8-fold higher.

`COc1ccc(C(=O)Nc2ccc(C#N)cc2C(=O)O)cc1` registered a minimal inhibitory concentration (MIC) of 16 µg/mL (≈ 54 µM).

In turn, `O=C(Cc1cccs1)Nc1ccc(C(=O)Nc2ccc(Br)cc2C(=O)O)cc1` [PHA-713386] had an MIC of 128 µg/mL (≈ 279 µM). This MIC lies about 8-fold higher than the previous one.

On to `O=C(Nc1ccc(Br)cc1C(=O)O)c1cccc(NS(=O)(=O)c2ccccc2)c1` [PHA-713409], for which the minimal inhibitory concentration (MIC) turned out to be 1 µg/mL (≈ 2.1 µM).

In the case of `O=C(Nc1ccc(Br)cc1C(=O)O)c1ccc(OCc2ccncc2)cc1`, the MIC was over 128 µg/mL.

For `N#Cc1ccc(NC(=O)c2ccc(S(=O)(=O)N3CCC(O)CC3)cc2)c(C(=O)O)c1` [PHA-571231], the MIC was over 128 µg/mL.

With `O=C(Nc1ccc(Br)cc1C(=O)O)c1ccc2c(c1)S(=O)(=O)c1ccccc1C2=O`, the MIC is 16 µg/mL (≈ 32.9 µM).

In the case of `COc1cc2c(cc1OC)CN(S(=O)(=O)c1ccc(C(=O)Nc3ccc(C#N)cc3C(=O)O)cc1)CC2` [PHA-571198], the minimal inhibitory concentration (MIC) was over 128 µg/mL.

Take `CC(=O)c1cccc(C(=O)Nc2ccc(Br)cc2C(=O)O)c1` [PHA-522145]: inhibition of growth (MIC) required 32 µg/mL (≈ 88.4 µM).

Consider `O=C(Nc1ccc(Br)cc1C(=O)O)c1ccc(F)cc1`, for which the minimum inhibitory concentration (MIC) was determined as 64 µg/mL (≈ 189 µM). Against the preceding molecule, the MIC is about 2-fold higher.

As for `CCCCN(CC#N)S(=O)(=O)c1ccc(C(=O)Nc2ccc(C#N)cc2C(=O)O)cc1` [PHA-571203], it took 32 µg/mL (≈ 72.6 µM) to inhibit growth (MIC).

Regarding `O=C(Nc1ccc(Cl)cc1C(=O)O)c1ccc(C(=NOCc2ccccc2)c2ccco2)cc1`, the MIC amounted to 32 µg/mL (≈ 67.4 µM).

Consider `O=C(Nc1ccc(I)cc1C(=O)O)c1ccc(S(=O)(=O)N2CCc3ccc(Cl)cc32)cc1`, for which it took 4 µg/mL (≈ 6.86 µM) to inhibit growth (MIC).

As for `CN(C)c1ccc(CNS(=O)(=O)c2ccc(C(=O)Nc3ccc(Br)cc3C(=O)O)cc2)cc1`, 128 µg/mL (≈ 240 µM) was the least that counted as inhibitory (MIC).

As for `COc1ccc(C(=O)Nc2ccc(Br)cc2C(=O)O)cc1S(=O)(=O)N(C)c1ccc(Cl)cc1` [PNU-291570], inhibition of growth (MIC) required 8 µg/mL (≈ 14.4 µM). Against the preceding molecule, the MIC is about 16-fold lower.

In turn, `CC(=O)Oc1cccc(C(=O)Nc2ccc(Br)cc2C(=O)O)c1` returned an MIC of 128 µg/mL (≈ 338 µM).

For `O=C(Nc1ccc(Br)cc1C(=O)O)c1cccc(CSc2ccccc2)c1` [PHA-501684], the lowest concentration to inhibit growth (MIC) was 1 µg/mL (≈ 2.26 µM).

In the case of `O=C(Nc1ccc(Br)cc1C(=O)O)c1cccc(Oc2ccccc2)c1` [PHA-513535], it took 2 µg/mL (≈ 4.85 µM) to inhibit growth (MIC).

In turn, `CO/N=C/c1ccc(NC(=O)c2cccc(S(=O)(=O)N3CCc4cc(Cl)ccc43)c2)c(C(=O)O)c1` [PHA-682996] registered an MIC of 64 µg/mL (≈ 125 µM).

Take `N#CCCN(Cc1ccccc1)S(=O)(=O)c1ccc(C(=O)Nc2ccc(C#N)cc2C(=O)O)cc1` [PHA-571246]: 32 µg/mL (≈ 65.5 µM) was the least that counted as inhibitory (MIC).

`CC1CCCN(S(=O)(=O)c2cccc(C(=O)Nc3ccc(C#N)cc3C(=O)O)c2)C1` (stereo not shown) [PHA-571270] registered an MIC of 8 µg/mL (≈ 18.7 µM). This MIC is about 4-fold lower than that of the molecule before.

`CCCCCC(=O)c1cccc(C(=O)Nc2ccc(Cl)cc2C(=O)O)c1` came in with an MIC of 8 µg/mL (≈ 21.4 µM).

Consider `COC(=O)c1cccc(C(=O)c2ccc(C(=O)Nc3ccc(Cl)cc3C(=O)O)cc2)c1` [PHA-656883], for which the lowest concentration to inhibit growth (MIC) was 16 µg/mL (≈ 36.5 µM).

`CN(c1ccc(Cl)cc1)S(=O)(=O)c1cc(C(=O)Nc2ccc(Br)cc2C(=O)O)ccc1Br` [PNU-291679]: the MIC amounted to 1 µg/mL (≈ 1.66 µM).

`CN(c1ccc(Cl)cc1)S(=O)(=O)c1ccc(Br)c(C(=O)Nc2ccc(Br)cc2C(=O)O)c1` [PNU-291061]: 16 µg/mL (≈ 26.5 µM) was the least that counted as inhibitory (MIC).

`CC(=O)Oc1ccc(N2C(=O)c3ccc(C(=O)Nc4ccc(Br)cc4C(=O)O)cc3C2=O)cc1` showed a minimum inhibitory concentration (MIC) of 64 µg/mL (≈ 122 µM). This MIC lies about 4-fold higher than the previous one.

In turn, `COc1cc(COc2ccc(C(=O)Nc3ccc(Br)cc3C(=O)O)cc2)ccc1[N+](=O)[O-]` came in with a minimum inhibitory concentration (MIC) of 8 µg/mL (≈ 16 µM).

Molecule `CN(c1ccccn1)S(=O)(=O)c1ccc(C(=O)Nc2ccc(Br)cc2C(=O)O)cc1` [PHA-516112] showed an MIC of 8 µg/mL (≈ 16.3 µM).

`COc1ccc(C(=O)Nc2ccc(Br)cc2C(=O)O)cc1S(=O)(=O)Nc1ccc(Cl)c2ccccc12` showed an MIC of over 128 µg/mL.

As to `N#Cc1cc(C(=O)Nc2ccc(Br)cc2C(=O)O)cc(S(=O)(=O)N2CCc3ccccc32)c1` [PHA-530687], the MIC was found to be 8 µg/mL (≈ 15.2 µM).

Consider `O=C(Nc1ccc(Br)cc1C(=O)O)c1cccc(S(=O)(=O)NCCCn2ccnc2)c1`, for which the MIC worked out at 64 µg/mL (≈ 126 µM).

`O=C(Nc1ccc(Br)cc1C(=O)O)c1ccc(S(=O)(=O)n2ccc3cc(Cl)ccc32)cc1` [PNU-290905] had an MIC of 1 µg/mL (≈ 1.87 µM).

In turn, `Cc1ccc(F)cc1C(=O)Nc1ccc(Br)cc1C(=O)O` yielded an MIC of 64 µg/mL (≈ 182 µM).

Regarding `O=C(CCC1CCCC1)c1cccc(C(=O)Nc2ccc(Cl)cc2C(=O)O)c1` [PHA-656891], 16 µg/mL (≈ 40 µM) was the least that counted as inhibitory (MIC). This MIC lies about 4-fold lower than the previous one.

The molecule `O=C(Nc1ccc(Br)cc1C(=O)O)c1cccc(S(=O)(=O)N2CCCC2)c1` [PHA-568378] had a minimal inhibitory concentration (MIC) of 2 µg/mL (≈ 4.41 µM). This MIC lies about 8-fold lower than the previous one.

In turn, `C[C@@H](c1ccccc1)N(C)S(=O)(=O)c1cccc(C(=O)Nc2ccc(C#N)cc2C(=O)O)c1` [PHA-562863] showed an MIC of 2 µg/mL (≈ 4.31 µM).

In turn, `CCCC(CCC)S(=O)(=O)c1ccc(C(=O)Nc2ccc(Cl)cc2C(=O)O)cc1NO.Cl` [PNU-283601A] had an MIC of 32 µg/mL.

For the molecule `COc1ccc(C(=O)Nc2ccc(Br)cc2C(=O)O)cc1S(=O)(=O)N1CCN(c2cccc(C(F)(F)F)c2)CC1`, it took 32 µg/mL (≈ 49.8 µM) to inhibit growth (MIC).

For `CCN(CC)C(=O)C1CCCN(S(=O)(=O)c2cccc(C(=O)Nc3ccc(C#N)cc3C(=O)O)c2)C1` (stereo not shown) [PHA-571176], it took 64 µg/mL (≈ 125 µM) to inhibit growth (MIC).

In turn, `Cc1cc(C(=O)Nc2ccc(Cl)cc2C(=O)O)cc(S(=O)(=O)N2CCc3ccccc32)c1` [PHA-664658] showed a minimal inhibitory concentration (MIC) of 4 µg/mL (≈ 8.49 µM).

`CCON=C(c1ccc(NC(=O)c2ccc(S(=O)(=O)N3CCc4ccccc43)cc2)c(C(=O)O)c1)C(C)C` displayed an MIC of 64 µg/mL (≈ 119 µM).

In turn, `O=Cc1ccc(NC(=O)c2cc(Br)cc(S(=O)(=O)N3CCc4cc(Cl)ccc43)c2)c(C(=O)O)c1` [PHA-681768] registered an MIC of 1 µg/mL (≈ 1.77 µM).

In turn, `N#Cc1ccc(NC(=O)c2cc(Br)cc(S(=O)(=O)N3CCc4ccccc43)c2)c(C(=O)O)c1` [PHA-630965] showed an MIC of 0.25 µg/mL (≈ 0.475 µM).

`COc1cccc2ccn(S(=O)(=O)c3cccc(C(=O)Nc4ccc(C#N)cc4C(=O)O)c3)c12` [PHA-568422] displayed an MIC of 0.125 µg/mL (≈ 0.263 µM).

Molecule `O=C(Nc1ccc(Br)cc1C(=O)O)c1ccc(C(=O)N2CCc3ccccc32)cc1` [PNU-292577] gave an MIC of 128 µg/mL (≈ 275 µM).

`COc1cccc(COc2ccc(C(=O)Nc3ccc(Br)cc3C(=O)O)cc2)c1`: the MIC is 8 µg/mL (≈ 17.5 µM).

For the origin of these results see US20050113450A1, “Antibacterial agents” (priority 2002, published 2005).
